Measured values: PMC11078990, “Identification and characterization of small molecule inhibitors of the LINE-1 retrotransposon endonuclease” (Nature Communications, 2024)
Several values for one entry are separate records, joined by “and”; a condition that tells them apart may be missing. Equal entries are not always repeated. Entries after “also recorded” stand apart in the source; their conditions may differ.

Key:
[1] = target: L1 EN (LINE-1 retrotransposon endonuclease domain) (Homo sapiens, UniProt O00370, N5T); assay: Fluorescent oligonucleotide EN nicking activity assay; format: biochemical
Sequence of L1 EN (LINE-1 retrotransposon endonuclease domain) (O00370 1-239 N5T): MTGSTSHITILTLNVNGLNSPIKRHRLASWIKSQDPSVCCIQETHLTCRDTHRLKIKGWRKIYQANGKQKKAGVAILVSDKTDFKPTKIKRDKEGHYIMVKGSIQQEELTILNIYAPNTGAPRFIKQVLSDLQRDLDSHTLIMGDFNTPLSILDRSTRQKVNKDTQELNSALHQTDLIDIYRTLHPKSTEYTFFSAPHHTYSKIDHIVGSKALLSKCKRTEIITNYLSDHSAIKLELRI

EN = EN (Homo sapiens, UniProt O00370, N5T); format: biochemical
Sequence of EN (O00370 1-239 N5T): as above

APE1 [2] = target: T1, APE1 (Homo sapiens, UniProt P27695); assay: APE1 fluorescent oligonucleotide activity assay (abasic site substrate); format: biochemical
T1 construct: purchased New England Biolabs (NEB) M0282S

[3] = tested on: substrate oligonucleotide used in the EN activity assay; format: binding; design: key to Binding Detected? (Y/N): Binding Detected? (Y/N); Binding Detected? (Y/N)
L1 retrotransposition = assay: HeLa dual-luciferase L1 retrotransposition assay; format: cell-based, human
APE1 [4] = target: T1, APE1; details: read-out: Ki for APE1; cited from earlier work

SMILES: O=C(O)[C@H](CCCCNc1ccc([N+](=O)[O-])cc1[N+](=O)[O-])Nc1ccc([N+](=O)[O-])cc1[N+](=O)[O-] [AD2]
- EN activity, percent of no inhibitor control ([1]; 2 µM): 97.2065% and 90.9835% and 64.2149%
- EN activity, percent of no inhibitor control ([1]; 10 µM): 80.6222% and 62.0824% and 77.8942%
- EN activity, percent of no inhibitor control ([1]; 25 µM): 84.9255% and 87.5391% and 75.5295%
- EN activity, percent of no inhibitor control ([1]; 50 µM): 66.9257% and 62.5652% and 70.9549%
- EN activity, percent of no inhibitor control ([1]; 100 µM): 54.3551% and 40.6401% and 45.1735%
- EN activity, percent of no inhibitor control ([1]; 500 µM): 2.482% and 2.582%
- EN activity, percent of no inhibitor control ([1]; 1000 µM): -0.01768% and 1.001% and 0.6109%
- EN activity, percent of no inhibitor control ([1]; 2000 µM): -4.007% and -5.494% and -4.957%
- Inhibition of EN activity in plasmid nicking assay (EN): full inhibition
- APE1 activity (%) (APE1 [2]): 96.2 ± 3.4%
- APE1 percent activity, Replicate 1 (APE1 [2]): 98.5607%
- APE1 percent activity, Replicate 2 (APE1 [2]): 92.3765%
- APE1 percent activity, Replicate 3 (APE1 [2]): 97.7464%
- APE1 percent activity, average (APE1 [2]): 96.2279%
- Effect on APE1 activity (APE1 [2]): inhibited; also recorded: inhibition by the weak APE1 inhibitor AD2 was detected
- Percent APE1 activity, average (APE1 [2]): 66.36%
- Percent APE1 activity, replicates (APE1 [2]): 67.8305% and 52.9447% and 78.2943%
- Binding Detected? (Y/N) [3]: N
- Effect on L1 retrotransposition (L1 retrotransposition): did not significantly impact retrotransposition
- Ki (APE1 [4]): 13 µM
